Test results as given in ChEMBL document CHEMBL5532740, “Optimization of a Novel DEL Hit That Binds in the Cbl-b SH2 Domain and Blocks Substrate Binding” (ACS Med Chem Lett, 2024).

Legend:
[1] = target: T1, E3 ubiquitin-protein ligase CBL-B (Homo sapiens, UniProt Q13191); experiment: Inhibition of active phospho Cbl-b (unknown origin) using His-phospho ZAP70 as substrate incubated for 30 mins followed by substrate addition and measured after 30 mins by TR-FRET assay
[2] = target: T1, E3 ubiquitin-protein ligase CBL-B; experiment: Binding affinity to N-terminal Avi-tagged biotinylated human Cbl-b (40 to 426 residues) expressed in Escherichia coli by SPR assay

T1 sequence (Q13191 whole entry, the tested form may be a part): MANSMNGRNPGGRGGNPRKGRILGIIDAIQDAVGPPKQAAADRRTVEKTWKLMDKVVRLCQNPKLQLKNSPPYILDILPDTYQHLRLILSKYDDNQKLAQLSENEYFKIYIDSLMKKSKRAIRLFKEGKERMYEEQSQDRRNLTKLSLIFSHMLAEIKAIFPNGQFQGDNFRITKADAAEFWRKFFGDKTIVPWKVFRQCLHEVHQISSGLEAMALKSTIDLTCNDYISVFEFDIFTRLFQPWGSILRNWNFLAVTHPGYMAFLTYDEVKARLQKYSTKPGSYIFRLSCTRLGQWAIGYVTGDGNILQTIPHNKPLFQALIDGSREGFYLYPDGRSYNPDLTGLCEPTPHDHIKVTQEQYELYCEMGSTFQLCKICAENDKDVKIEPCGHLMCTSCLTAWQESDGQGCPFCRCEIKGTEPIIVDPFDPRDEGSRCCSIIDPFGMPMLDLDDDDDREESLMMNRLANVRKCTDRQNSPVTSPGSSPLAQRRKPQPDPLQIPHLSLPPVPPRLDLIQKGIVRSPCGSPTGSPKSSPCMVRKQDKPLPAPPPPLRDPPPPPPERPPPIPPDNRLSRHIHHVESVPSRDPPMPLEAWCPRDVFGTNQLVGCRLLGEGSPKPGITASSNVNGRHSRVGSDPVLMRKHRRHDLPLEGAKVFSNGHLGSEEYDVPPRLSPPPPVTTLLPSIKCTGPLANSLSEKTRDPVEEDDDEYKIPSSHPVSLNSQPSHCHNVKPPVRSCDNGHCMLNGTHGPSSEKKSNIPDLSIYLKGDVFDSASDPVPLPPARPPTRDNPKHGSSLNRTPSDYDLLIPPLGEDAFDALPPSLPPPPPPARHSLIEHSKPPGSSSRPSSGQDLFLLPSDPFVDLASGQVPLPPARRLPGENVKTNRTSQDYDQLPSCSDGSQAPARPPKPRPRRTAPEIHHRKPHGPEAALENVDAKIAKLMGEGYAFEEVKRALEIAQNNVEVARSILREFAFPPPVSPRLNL

| IC50 [1] [nM] | Kd [2] [nM] | SMILES |
| --- | --- | --- |
| 300 | – | CCN1C(=O)[C@H](C)N(C(=O)Cc2c(OC)ccc3c2Oc2c(ccc(OC)c2CC(=O)O)C3(C)C)[C@@H]1c1cc([N+](=O)[O-])cc(OC)c1OCC(=O)O |
| > 20000 | – | CCOc1c(OC)cc([N+](=O)[O-])cc1[C@@H]1N(C)C(=O)[C@H](C)N1C(=O)Cc1c(OC)ccc2c1Oc1c(ccc(OC)c1C(=O)NS(C)(=O)=O)C2(C)C |
| 340 | 280 | COc1ccc2c(c1CC(=O)O)Oc1c(ccc(OC)c1CC(=O)N1[C@H](c3cc([N+](=O)[O-])cc(OC)c3OCC(=O)O)N(C)C(=O)[C@@H]1C)C2(C)C |
| > 20000 | 44000 | COc1ccc2c(c1CC(=O)O)Oc1c(ccc(OC)c1CC(=O)N1[C@@H](C)C(=O)N(C)[C@@H]1c1cc([N+](=O)[O-])cc(OC)c1OCC(=O)O)C2(C)C |
| 890 | – | CCOC(=O)COc1c(OC)cc([N+](=O)[O-])cc1[C@@H]1N(C)C(=O)[C@H](C)N1C(=O)Cc1c(OC)ccc2c1Oc1c(ccc(OC)c1CC(=O)O)C2(C)C |
| 770 | – | CC[C@H]1C(=O)N(C)[C@@H](c2cc([N+](=O)[O-])cc(OC)c2OCC(=O)O)N1C(=O)Cc1c(OC)ccc2c1Oc1c(ccc(OC)c1CC(=O)O)C2(C)C |
